# US11767341B2, “Lincosamide antibiotics and uses thereof” (President and Fellows of Harvard College, priority 2017, dated 2023)
# Read-outs that look alike come from different tables or passages of the source.
# Experiments:
# Assay in all cases: MIC determination
# Type in all cases: cell-based
# [1] = test system: E. faecalis ATCC 29212; settings: Enterococcus faecalis
# [2] = test system: H. influenzae ATCC 49247
# [3] = test system: E. faecalis MMX 847 Macrolide-Resistant; settings: Enterococcus faecalis, read-out: MIC
# [4] = test system: E. coli MP-9 ΔTolC
# [5] = test system: S. pneumoniae ATCC 49619; settings: Streptococcus pneumoniae, ATCC49619
# [6] = test system: S. pyogenes ATCC 19615; settings: S. pyogenes ATCC 19615
# [7] = test system: E. coli ATCC 25922; settings: Escherichia coli, ATCC25922, E. coli ATCC 25922; read-out: MIC
# [8] = test system: S. aureus MMX 3035 cErmA; settings: Staphylococcus aureus, MMX3035CERMA; S. aureus MMX 3035 cErmA; read-out: MIC
# [9] = test system: S. pyogenes MMX 946 Macrolide-Resistant; settings: Streptococcus pyogenes
# [10] = test system: S. aureus MP-549 msr(a) USA 300; settings: Staphylococcus aureus, USA300, S. aureus MP-549 msr(a) USA 300
# [11] = test system: E. coli MP-74 LptD mutant
# [12] = test system: S. pneumoniae MMX 3028 cErmB; settings: Streptococcus pneumoniae, MMX3028CERMB
# [13] = test system: S. pneumoniae MMX 3031 cMefA; settings: Streptococcus pneumoniae, MMX3031CMEFA
# [14] = test system: S. aureus BAA 977 iErmA; settings: Staphylococcus aureus, BAA977
# [15] = test system: S. aureus ATCC 29213
# [16] = test system: K. pneumoniae ATCC 10031; settings: Klebsiella pneumoniae, ATCC10031
# [17] = S. pneumoniae ATCC 49619, read-out: MIC
# [18] = Streptococcus pyogenes, ATCC19615, read-out: MIC
# [19] = S. pneumoniae MMX 3028 cErmB, read-out: MIC
# [20] = Staphylococcus aureus, ATCC29213, S. aureus ATCC 29213, read-out: MIC
# [21] = Haemophilus influenzae, ATCC49247
# [22] = E. faecalis MMX 847 Macrolide-Resistant (MacRes)
# [23] = K. pneumoniae ATCC 10031, read-out: MIC
Compound,MIC ([4]; Escherichia coli),"MIC [5, 17]","MIC [6, 18]",MIC [7],MIC [8],MIC [10],MIC ([11]; Escherichia coli),"MIC [12, 19]",MIC [13],MIC [14],"MIC [15, 20]","MIC ([1]; ATCC29212, read-out: MIC)","MIC [2, 21]","MIC [16, 23]",further results
COc1ccc([C@H]2CCO[C@@H]3[C@H](CN[C@@H]3C(=O)N[C@H]([C@H](C)Cl)[C@H]3OC(SC)[C@H](O)[C@H](O)C3O)C2)cc1 (stereo partly shown) [FSA-512080b],4 µg/mL,≤ 0.06 µg/mL,≤ 0.06 µg/mL,128 µg/mL,64 µg/mL,0.5 µg/mL,8 µg/mL,4 µg/mL,≤ 0.06 µg/mL,0.25 µg/mL,0.12 µg/mL,,,,"MIC ([1]; ATCC29212): 0.5 µg/mL; MIC ([2]; Haemophilus influenzae, ATCC49247, H. influenzae ATCC 49247, read-out: MIC): 16 µg/mL; MIC ([3]; E. faecalis MMX 847 MacRes): 64 µg/mL; MIC ([9]; S. pyogenes MMX 946 MacRes, read-out: MIC): 16 µg/mL"
CSC1O[C@H]([C@H](NC(=O)[C@H]2NC[C@@H]3C[C@@H](c4ccc(C#N)cc4)CCO[C@H]32)[C@H](C)Cl)C(O)[C@@H](O)[C@H]1O (stereo partly shown) [FSA-512081a],,,,,128 µg/mL,,,4 µg/mL,< 0.06 µg/mL,1 µg/mL,,,,,MIC ([1]; ATCC29212): 0.5 µg/mL; MIC ([2]; H. influenzae ATCC 49247): 16 µg/mL; MIC ([3]; E. faecalis MMX 847 MacRes): 64 µg/mL; MIC [4]: 4 µg/mL; MIC [6]: ≤0.06 µg/mL; MIC [9]: 16 µg/mL; MIC [11]: 16 µg/mL; MIC ([15]; S. aureus ATCC 29213): 0.25 µg/mL
CSC1O[C@H]([C@H](NC(=O)[C@H]2NC[C@@H]3C[C@@H](c4ccc(C#N)cc4)CCO[C@H]32)[C@H](C)Cl)C(O)[C@@H](O)[C@H]1O (stereo partly shown) [FSA-511046],8 µg/mL,≤ 0.06 µg/mL,≤ 0.06 µg/mL,> 64 µg/mL,,0.5 µg/mL,32 µg/mL,,,,,1 µg/mL,16 µg/mL,,MIC [16]: 16 µg/mL; MIC ([15]; S. aureus ATCC 29213): 1 µg/mL
CSC1O[C@H]([C@H](NC(=O)[C@H]2NC[C@@H]3C[C@@H](c4ccc(C(F)(F)F)cc4)CCO[C@H]32)[C@H](C)Cl)C(O)[C@@H](O)[C@H]1O (stereo partly shown) [FSA-509019],16 µg/mL,≤ 0.06 µg/mL,≤ 0.06 µg/mL,,64 µg/mL,,32 µg/mL,,0.125 µg/mL,0.25 µg/mL,≤ 0.06 µg/mL,1 µg/mL,,,"MIC [3, 22]: 64 µg/mL; MIC [16]: 16 µg/mL; MIC [9]: 32 µg/mL; MIC [12]: 16 µg/mL"
CSC1O[C@H]([C@H](NC(=O)[C@H]2NC[C@@H]3CC=CCO[C@H]32)[C@H](C)Sc2ccc(-c3cccnc3)cc2)C(O)[C@@H](O)[C@H]1O (stereo partly shown) [FSA-213061],8 µg/mL,≤ 0.06 µg/mL,≤ 0.06 µg/mL,> 64 µg/mL,64 µg/mL,0.5 µg/mL,8 µg/mL,8 µg/mL,0.125 µg/mL,0.25 µg/mL,0.25 µg/mL,16 µg/mL,,32 µg/mL,"MIC [3, 22]: > 64 µg/mL; MIC ([9]; S. pyogenes MMX 946 Macrolide-Resistant (MacRes), read-out: MIC): 4 µg/mL"
CSC1O[C@H]([C@H](NC(=O)[C@H]2NC[C@@H]3CC(c4ccc(C)cc4)=CCO[C@H]32)[C@H](C)Cl)C(O)[C@@H](O)[C@H]1O (stereo partly shown) [FSA-511019],32 µg/mL,0.25 µg/mL,0.125 µg/mL,> 64 µg/mL,,0.5 µg/mL,64 µg/mL,,,,,4 µg/mL,64 µg/mL,> 64 µg/mL,"MIC ([15]; Staphylococcus aureus, ATCC29213): 0.5 µg/mL"
CSC1O[C@H]([C@H](NC(=O)[C@H]2NC[C@@H]3CC(c4ccc(C)cc4)CCO[C@H]32)[C@H](C)Cl)C(O)[C@@H](O)[C@H]1O (stereo partly shown) [FSA-511044],16 µg/mL,,≤ 0.06 µg/mL,> 64 µg/mL,,0.5 µg/mL,16 µg/mL,,,,0.25 µg/mL,2 µg/mL,16 µg/mL,32 µg/mL,MIC [5]: 0.5 µg/mL
